# ChEMBL document CHEMBL1201862, “PubChem BioAssay data set” (2004)
#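 Following 48 hours of exposure in 96-well plates, responses at five concentrations were used to interpolate endpoints linearly. At the GI50, growth is halved.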 Active and inactive are the calls of the source. No stated cut-off is given here; in the data, active = GI50 up to about 1.1 µM and inactive = higher.
# What was measured:
# Experiment in all cases: DTP human tumour cell line panel, 48 h
# [1] = test system: KM-20L2
# [2] = test system: SNB-78
# [3] = test system: XF498
# [4] = test system: DMS-114
# [5] = test system: LXFL 529
# [6] = test system: M19-MEL
# [7] = test system: DMS-273
# [8] = test system: HOP-18
# [9] = test system: RXF 631
SMILES,GI50 [1],GI50 [2],GI50 [3],GI50 [4],GI50 [5],GI50 [6],GI50 [7],GI50 [8],GI50 [9]
Nc1nc(CCC(=O)Nc2cccc(C(F)(F)F)c2)cc(-c2ccc3ccccc3c2)n1,> 100 µM (inactive),> 100 µM (inactive),> 100 µM (inactive),> 100 µM (inactive),> 100 µM (inactive),> 100 µM (inactive),> 100 µM (inactive),> 100 µM (inactive),
CO/C=C(\Br)c1ccc2c(c1)OCO2,,> 100 µM (inactive),> 100 µM (inactive),> 100 µM (inactive),> 100 µM (inactive),> 100 µM (inactive),> 100 µM (inactive),,> 100 µM (inactive)
Cc1c(C(=O)CSc2nc3ccccc3c(=O)n2-c2ccccc2)c(=O)n(-c2ccccc2)n1C,> 100 µM (inactive),45.5 µM (inactive),43.2 µM (inactive),> 100 µM (inactive),,52.7 µM (inactive),68.2 µM (inactive),,
COC1(OC)CCC2C1C1CCC(OC)(OC)C21 (stereo not given),> 50 µM (inactive),> 50 µM (inactive),> 50 µM (inactive),> 50 µM (inactive),> 50 µM (inactive),> 50 µM (inactive),> 50 µM (inactive),> 50 µM (inactive),> 50 µM (inactive)
Cc1cc(C)nc(/C(=N\NC(N)=O)C(=O)Nc2nc3ccc(C)cc3s2)c1,> 92.3 µM (inactive),> 100 µM (inactive),> 100 µM (inactive),> 48.5 µM (inactive),> 100 µM (inactive),> 100 µM (inactive),> 58.1 µM (inactive),> 100 µM (inactive),
O=c1cc(-c2ccccc2)oc2cc(OCC(O)COc3ccc4c(=O)cc(-c5ccccc5)oc4c3)ccc12,> 100 µM (inactive),13.6 µM (inactive),23.4 µM (inactive),> 100 µM (inactive),40 µM (inactive),56.4 µM (inactive),41.9 µM (inactive),> 100 µM (inactive),
COc1ccc(/C(=N\NC(=S)NN)C(c2ccc(OC)cc2)C2C(=O)Oc3ccccc32)cc1 (stereo not given),> 10 µM (inactive),> 10 µM (inactive),> 10 µM (inactive),14.8 µM (inactive),72.4 µM (inactive),> 10 µM (inactive),> 10 µM (inactive),7.18 µM (inactive),
Cn1cnc([N+](=O)[O-])c1Sc1nc(N)nc2c1ncn2C1OC(CO)C(O)C1O (stereo not given),3.06 µM (inactive),7.26 µM (inactive),6.87 µM (inactive),10.7 µM (inactive),45.8 µM (inactive),35.2 µM (inactive),4.17 µM (inactive),44.7 µM (inactive),
COC12CCC(C(C(=O)c3ccccc3)=C1C(=O)c1ccccc1)C(O)C2 (stereo not given),,> 100 µM (inactive),> 100 µM (inactive),> 100 µM (inactive),> 100 µM (inactive),> 100 µM (inactive),> 100 µM (inactive),,> 100 µM (inactive)
C=CCCCCn1c2ccccc2c2c(C)c3c[n+](C)ccc3c(C)c21,0.352 µM (active),0.387 µM (active),,0.118 µM (active),0.176 µM (active),0.296 µM (active),,0.0912 µM (active),
COC1CCC(OC)C(C2(C3CC(OC)CCC3OC)OC(=O)c3ccccc32)C1 (stereo not given),44.2 µM (inactive),> 100 µM (inactive),76.4 µM (inactive),55.7 µM (inactive),,,22.6 µM (inactive),> 100 µM (inactive),> 100 µM (inactive)
COc1cc(/C=C/c2ccc(/C=C/c3cc(OC)c(OC)c(OC)c3)cc2)cc(OC)c1OC,20.8 µM (inactive),26.1 µM (inactive),17 µM (inactive),22.4 µM (inactive),11.9 µM (inactive),32.9 µM (inactive),14.6 µM (inactive),32.1 µM (inactive),
COC1=CC(=O)C2C(C1=O)[C@@H]1c3ccccc3C[C@H]21 (stereo not given in full),,> 100 µM (inactive),> 100 µM (inactive),,,> 100 µM (inactive),> 100 µM (inactive),,> 100 µM (inactive)
